Measured values as given in EP0677522A1, “8-METHOXYQUINOLONECARBOXYLIC ACID DERIVATIVE” (priority 1992, dated 1994).
Converted amounts (≈) assume the structure as drawn.

Legend:
[1] = test system: Enterobacter cloacae IFO 12937; test: In vitro antibacterial activity (MIC), Japan Society of Chemotherapy Standard; format: cell-based; conditions: IFO12937, inoculated cells 10⁶ cells/ml
Method: (§1) The in vitro antibacterial activity (minimum inhibitory concentration, MIC, µg/ml) of the test compounds was determined according to Japan Society of Chemotherapy Standard [Chemotherapy, vol. 29, pp 76-79 (1981)].
(§2) Inoculated cells were 10⁶ cells/ml and the strain with * was incubated in a medium supplemented with 10% horse blood. The mark "1)" means quinolone resistant MRSA and "2)" means quinolone resistant bacteria.

[2] = test system: Enterococcus faecalis LS-101; test: as above; format: cell-based; conditions: LS101, inoculated cells 10⁶ cells/ml
Method: as §1, §2

[3] = test system: Escherichia coli NIHJ JC-2; test: as above; format: cell-based; conditions: NIHJJC2, inoculated cells 10⁶ cells/ml
Method: as §1, §2

K.pneumoniae DT-S = test: as above; format: cell-based; conditions: Klebsiella pneumoniae; inoculated cells 10⁶ cells/ml
Method: as §1, §2

P. mirabilis IFO 3849 = test: as above; format: cell-based; conditions: Proteus mirabilis, IFO3849; inoculated cells 10⁶ cells/ml
Method: as §1, §2

P.aeruginosa U-31 = test: as above; format: cell-based; conditions: Pseudomonas aeruginosa, U31; inoculated cells 10⁶ cells/ml
Method: as §1, §2

[4] = test system: Proteus vulgaris IFO 3988; test: as above; format: cell-based; conditions: IFO3988, inoculated cells 10⁶ cells/ml
Method: as §1, §2

[5] = test system: S. epidermidis ATCC 12228; test: as above; format: cell-based; conditions: Staphylococcus epidermidis, ATCC12228; inoculated cells 10⁶ cells/ml
Method: as §1, §2

[6] = test system: Serratia marcescens IFO 12648; test: as above; format: cell-based; conditions: IFO12648, inoculated cells 10⁶ cells/ml
Method: as §1, §2

Shigella flexneri EW-10 = test: as above; format: cell-based; conditions: EW10, inoculated cells 10⁶ cells/ml
Method: as §1, §2

[7] = test system: Staphylococcus aureus FDA 209P; test: as above; format: cell-based; conditions: FDA209P, inoculated cells 10⁶ cells/ml
Method: as §1, §2

[8] = test system: A.calcoaceticus IFO 13006; test: as above; format: cell-based; conditions: Acinetobacter calcoaceticus, IFO13006; inoculated cells 10⁶ cells/ml
Method: as §1, §2

[9] = test system: Citrobacter freundii IFO 12681; test: as above; format: cell-based; conditions: IFO12681, inoculated cells 10⁶ cells/ml
Method: as §1, §2

E. avium EAY-30 = test: as above; format: cell-based; conditions: Enterococcus avium, EAY30, inoculated cells 10⁶ cells/ml
Method: as §1, §2

E. faecium EFMY-28 = test: as above; format: cell-based; conditions: Enterococcus faecium, EFMY28; inoculated cells 10⁶ cells/ml
Method: as §1, §2

L.monocytogenes VTU-206 = test: as above; format: cell-based; conditions: Listeria monocytogenes, VTU206; inoculated cells 10⁶ cells/ml; medium supplemented with 10% horse blood
Method: as §1, §2

M.catarrhalis ATCC 25238 = test: as above; format: cell-based; conditions: Moraxella catarrhalis, ATCC25238; inoculated cells 10⁶ cells/ml; medium supplemented with 10% horse blood
Method: as §1, §2

S. aureus No.88 = test: as above; format: cell-based; conditions: Staphylococcus aureus; quinolone resistant MRSA; inoculated cells 10⁶ cells/ml
Method: as §1, §2

S. pneumoniae Type-III = test: as above; format: cell-based; conditions: Streptococcus pneumoniae; inoculated cells 10⁶ cells/ml; medium supplemented with 10% horse blood
Method: as §1, §2

[10] = test system: Streptococcus pyogenes C-203; test: as above; format: cell-based; conditions: C203, inoculated cells 10⁶ cells/ml, medium supplemented with 10% horse blood
Method: as §1, §2

male ICR mice = test: Preliminary micronucleus test; format: in vivo; conditions: for Emergence of micronucleus in polychromatic cells compared with the control group: after 24 hours, Example 5: in the dose of 1,000 mg/kg or above
Method: A preliminary micronucleus test was performed by oral administration to male ICR mice. […]

[11] = test system: Bacteroides fragilis GAI 5560; test: Antibacterial effect against specific bacteria (MIC); format: cell-based; conditions: GAI5560, same manner as Experimental Example 1
Method: as §1
(§3) In the same manner as in Experimental Example 1, the antibacterial effect against specific bacteria such as Chlamydia, Mycoplasma and acid-fast bacteria and anaerobic bacteria was determined.

[12] = test system: Chlamydia trachomatis D/UW-3Cx; test: as above; format: cell-based; conditions: same manner as Experimental Example 1
Method: as §1, §3

[13] = test system: Mycobacterium smegmatis IFO 13167; test: as above; format: cell-based; conditions: Mycolicibacterium smegmatis, IFO13167; same manner as Experimental Example 1
Method: as §1, §3

[14] = test system: Mycoplasma pneumoniae ATCC 29343; test: as above; format: cell-based; conditions: ATCC29343, same manner as Experimental Example 1
Method: as §1, §3

[15] = test system: Ureaplasma urealyticum ATCC 27618; test: as above; format: cell-based; conditions: ATCC27618, same manner as Experimental Example 1
Method: as §1, §3

E. coli KC-14 [16] = test: MIC of the infectious bacteria used for experimental infection; format: cell-based; conditions: Escherichia coli, KC14; infectious strain of the mouse protection test
Method: as §1
(§4) Experimental infection was caused by intraperitoneal inoculation of respective bacteria to male mice. One hour after the inoculation, a test compound was orally administered to the mice. The therapeutic effect of each test compound was evaluated by reference to the 50% effective dose (ED₅₀) which was based on the survival ratio at 7 days after the administration according to the probit method [Proc. Soc. Exp. Med., Vol. 57, p 261-264 (1944)]. The minimum inhibitory concentration (MIC) of the infectious bacteria used was also determined. […]

S. aureus MRSA Y-238 [17] = test: as above; format: cell-based; conditions: Staphylococcus aureus, infectious strain of the mouse protection test
Method: as §1, §4

S. aureus Smith [18] = test: as above; format: cell-based; conditions: Staphylococcus aureus; infectious strain of the mouse protection test
Method: as §1, §4

E. coli KC-14 [19] = test: Protection of mice from experimental infection; format: in vivo; conditions: Table 3-1: male mice; intraperitoneal inoculation 5.0×10⁶ cells/mouse (744×LD₅₀); oral administration one hour after inoculation; survival ratio at 7 days
Method: as §4

S. aureus MRSA Y-238 [20] = test: Protection of mice from experimental infection; format: in vivo; conditions: Table 3-1: male mice; intraperitoneal inoculation 7.5×10⁶ cells/mouse (185×LD₅₀); oral administration one hour after inoculation; survival ratio at 7 days
Method: as §4

S. aureus Smith [21] = test: Protection of mice from experimental infection; format: in vivo; conditions: male mice; intraperitoneal inoculation 2.8×10⁶ cells/mouse (123×LD₅₀); oral administration one hour after inoculation; survival ratio at 7 days, probit method
Method: as §4

Structure (SMILES) | MIC [1] | MIC [2] | MIC [3] | MIC (K.pneumoniae DT-S) | MIC (P. mirabilis IFO 3849) | MIC (P.aeruginosa U-31) | MIC [4] | MIC [5] | MIC [6] | MIC (Shigella flexneri EW-10) | MIC [7] | MIC [8] | MIC [9] | MIC (E. avium EAY-30) | MIC (E. faecium EFMY-28) | MIC (L.monocytogenes VTU-206) | MIC (M.catarrhalis ATCC 25238) | MIC (S. aureus No.88) | MIC (S. pneumoniae Type-III) | MIC [10] | other results
COc1c(N2CCC(N)(CN)CC2)c(F)cc2c(=O)c(C(=O)O)cn(C3CC3)c12 [Comp. Ex. 1, 7-(4-amino-4-aminomethylpiperidin-1-yl)-1-cyclopropyl-6-fluoro-1,4-dihydro-8-methoxy-4-oxo-3-quinolinecarboxylic acid, reference compound] | 12.5 µg/mL (≈ 30.9 µM) | 1.56 µg/mL (≈ 3.86 µM) | 1.56 µg/mL (≈ 3.86 µM) | 6.25 µg/mL (≈ 15.5 µM) | 25 µg/mL (≈ 61.8 µM) | 12.5 µg/mL (≈ 30.9 µM) | 25 µg/mL (≈ 61.8 µM) | 0.78 µg/mL (≈ 1.93 µM) | 6.25 µg/mL (≈ 15.5 µM) | 0.39 µg/mL (≈ 0.964 µM) | 0.1 µg/mL (≈ 0.247 µM) | – | – | – | – | – | – | – | – | – | –
COc1c(N2CCC(N)(CF)C2)c(F)cc2c(=O)c(C(=O)O)cn(C3CC3)c12 (stereo not shown) [Example 1, 7-(3-amino-3-fluoromethylpyrrolidin-1-yl)-1-cyclopropyl-6-fluoro-1,4-dihydro-8-methoxy-4-oxo-3-quinolinecarboxylic acid] | 0.2 µg/mL (≈ 0.508 µM) | 0.012 µg/mL (≈ 0.0305 µM) | 0.025 µg/mL (≈ 0.0636 µM) | 0.025 µg/mL (≈ 0.0636 µM) | 0.39 µg/mL (≈ 0.991 µM) | 0.39 µg/mL (≈ 0.991 µM) | 0.2 µg/mL (≈ 0.508 µM) | 0.012 µg/mL (≈ 0.0305 µM) | 0.2 µg/mL (≈ 0.508 µM) | ≤ 0.006 µg/mL | ≤ 0.006 µg/mL | 0.05 µg/mL (≈ 0.127 µM) | 0.05 µg/mL (≈ 0.127 µM) | 0.1 µg/mL (≈ 0.254 µM) | 0.2 µg/mL (≈ 0.508 µM) | 0.1 µg/mL (≈ 0.254 µM) | 0.012 µg/mL (≈ 0.0305 µM) | 0.39 µg/mL (≈ 0.991 µM) | 0.012 µg/mL (≈ 0.0305 µM) | 0.05 µg/mL (≈ 0.127 µM) | –
COc1c(N2CC[C@](N)(CF)C2)c(F)cc2c(=O)c(C(=O)O)cn(C3CC3)c12 [Example 5, (R)-7-(3-amino-3-fluoromethylpyrrolidin-1-yl)-1-cyclopropyl-6-fluoro-1,4-dihydro-8-methoxy-4-oxo-3-quinolinecarboxylic acid] | 0.2 µg/mL (≈ 0.508 µM) | 0.012 µg/mL (≈ 0.0305 µM) | 0.025 µg/mL (≈ 0.0636 µM) | 0.05 µg/mL (≈ 0.127 µM) | 0.2 µg/mL (≈ 0.508 µM) | 0.39 µg/mL (≈ 0.991 µM) | 0.39 µg/mL (≈ 0.991 µM) | 0.012 µg/mL (≈ 0.0305 µM) | 0.2 µg/mL (≈ 0.508 µM) | 0.012 µg/mL (≈ 0.0305 µM) | ≤ 0.006 µg/mL | 0.025 µg/mL (≈ 0.0636 µM) | 0.05 µg/mL (≈ 0.127 µM) | 0.1 µg/mL (≈ 0.254 µM) | 0.1 µg/mL (≈ 0.254 µM) | 0.1 µg/mL (≈ 0.254 µM) | 0.012 µg/mL (≈ 0.0305 µM) | 0.78 µg/mL (≈ 1.98 µM) | 0.012 µg/mL (≈ 0.0305 µM) | 0.05 µg/mL (≈ 0.127 µM) | Emergence of micronucleus in polychromatic cells compared with the control group (male ICR mice; oral): showed significant increase in emergence frequency of micronucleus; Emergence of micronucleus (%) (male ICR mice; oral, dose 500 mg/kg): 0.45±0.28 %; Emergence of micronucleus (%) (male ICR mice; oral, dose 1000 mg/kg): 1.45±1.45 %; Emergence of micronucleus (%) (male ICR mice; oral, dose 2000 mg/kg): 2.38±0.85 %
COc1c(N2CC[C@@](N)(CF)C2)c(F)cc2c(=O)c(C(=O)O)cn(C3CC3)c12 [Example 6, (S)-7-(3-amino-3-fluoromethylpyrrolidin-1-yl)-1-cyclopropyl-6-fluoro-1,4-dihydro-8-methoxy-4-oxo-3-quinoline carboxylic acid] | 0.2 µg/mL (≈ 0.508 µM) | 0.012 µg/mL (≈ 0.0305 µM) | 0.025 µg/mL (≈ 0.0636 µM) | 0.05 µg/mL (≈ 0.127 µM) | 0.2 µg/mL (≈ 0.508 µM) | 0.39 µg/mL (≈ 0.991 µM) | 0.39 µg/mL (≈ 0.991 µM) | ≤ 0.006 µg/mL | 0.2 µg/mL (≈ 0.508 µM) | 0.012 µg/mL (≈ 0.0305 µM) | ≤ 0.006 µg/mL | 0.025 µg/mL (≈ 0.0636 µM) | 0.1 µg/mL (≈ 0.254 µM) | 0.1 µg/mL (≈ 0.254 µM) | 0.2 µg/mL (≈ 0.508 µM) | 0.1 µg/mL (≈ 0.254 µM) | 0.012 µg/mL (≈ 0.0305 µM) | 0.39 µg/mL (≈ 0.991 µM) | 0.025 µg/mL (≈ 0.0636 µM) | 0.05 µg/mL (≈ 0.127 µM) | MIC [11]: 0.05 µg/mL (≈ 0.127 µM); MIC [12]: 0.012 µg/mL (≈ 0.0305 µM); MIC [13]: 0.1 µg/mL (≈ 0.254 µM); MIC [14]: 0.025 µg/mL (≈ 0.0636 µM); MIC [15]: 0.1 µg/mL (≈ 0.254 µM); MIC (E. coli KC-14 [16]): 0.012 µg/mL; MIC (S. aureus MRSA Y-238 [17]): 0.39 µg/mL; MIC (S. aureus Smith [18]): ≤ 0.006 µg/mL; ED₅₀ (mg/mouse) (95% confidence limit) (E. coli KC-14 [19]): 0.011(0.008-0.015) mg/mouse; ED₅₀ (mg/mouse) (95% confidence limit) (S. aureus MRSA Y-238 [20]): 1.54(1.103-2.151) mg/mouse; ED₅₀ (mg/mouse) (95% confidence limit) (S. aureus Smith [21]): 0.036(0.025-0.052) mg/mouse; Emergence of micronucleus in polychromatic cells compared with the control group (male ICR mice; oral): did not show significant difference in emergence of micronucleus; Emergence of micronucleus (%) (male ICR mice; oral, dose 500 mg/kg): 0.16±0.16%; Emergence of micronucleus (%) (male ICR mice; oral, dose 1000 mg/kg): 0.16±0.11%; Emergence of micronucleus (%) (male ICR mice; oral, dose 2000 mg/kg): 0.26±0.04%
CO[C@@]12[C@H](COC(N)=O)C3=C(C(=O)C(C)=C(N)C3=O)N1C[C@@H]1N[C@@H]12 [MMC, mitomycin C, reference compound] | – | – | – | – | – | – | – | – | – | – | – | – | – | – | – | – | – | – | – | – | Emergence of micronucleus (%) (male ICR mice; dose 1 mg/kg (positive control)): 2.36±1.52 %
